Laboratory results taken from US12312599B2, “Methods, compositions, and kits for producing beige adipocytes and treating metabolic disorders” (MaineHealth, priority 2018, dated 2025).

Assays:
Format in all cases: cell-based, human
iPSCs = experiment: Mesoderm induction of iPSCs: FOXF1 and IRX3 expression
Description: PSCs were cultured in monolayer on hESC-qualified Matrigel-coated plates (Corning) and expanded in NutriStem hPSC XF Medium (Stemgent) and passaged with ReLeSR passaging reagent (STEMCELL Technologies). For mesoderm induction (Day 0), PSC colonies was dissociated with TrypLE cell dissociation reagent (Thermofisher) and plated on Matrigel coated plates in NutriStem medium containing 10 μM Y-27632 Rho kinase inhibitor (Calbiochem). The following day (Day 1), NutriStem medium was replaced with STEMdiff Mesoderm Induction Medium (MIM) (STEMCELL Technologies) and changed each day until day 5.
Note: Only use Y-27632 stock solutions that have been resuspended in DMSO. […] Conduct Mesoderm induction of iPSC in a laminar flow cabinet. • 3. Expand cells in NutriStem hPSC XF Medium overnight and change 100% of the medium without Y-27632 every 24 hours in a laminar flow cabinet for cell culture. When changing media, tilt plate up and allow media to pool at the bottom of wells. Aspirate the pooled medium without touching the surface of the plate. Replace with medium warmed to room temperature by pipetting 2 ml down the side of the wells. Cell Passaging • 1. Expand cell colonies until they have reached 70-80% confluence in high-density areas of the wells. High-density accumulation can occur along the edges of the well as well as the middle. Cells permitted to reach high density will lose their potential for differentiation after multiple passages. • 2. Prior to cell passage, warm cell wash buffer and NutriStem hPSC XF Medium to room temperature. Conduct cell passage in a laminar flow cabinet. • 3. Aspirate NutriStem hPSC XF Medium from wells with vacuum aspirator and wash with PBS without calcium or magnesium. Remove PBS and add 1 ml of ReLeSR reagent to side of well. Agitate plate to allow ReLeSR reagent to spread evenly on the surface. • 4. Aspirate ReLeSR reagent with vacuum aspirator after 30 seconds, which will leave behind a thin film of liquid. Incubate plate at 37° C. for 5-8 minutes undisturbed. • 5. Add fresh NutriStem hPSC XF Medium to wells and gently remove the cell colonies from the plate. Check that most cells have been dislodged from the plate surface with a light microscope. If not, rewash with more medium as needed. • 6. Transfer cell colony suspension in NutriStem hPSC XF Medium to Matrigel coated culture plates for further expansion (see Cell plating and culture above). Generation of iPSC Derived MSCs Mesoderm Induction of iPSC • 1. When iPSCs have reached 70-80% confluence, they will need to be passaged as single cells rather than colonies prior to mesoderm induction (day 0). • 2. Prepare for passage by warming cell wash buffer and NutriStem hPSC XF medium to room temperature and add Y-27632 Rho kinase inhibitor to medium at a final concentration of 10 μM. […]

iPSC-beige adipocytes [1] = experiment: Fatty acid uptake assay; conditions: adipocytes whitened 6 days without rosiglitazone
Description: Following washes, add secondary antibody diluted at a ratio of 1:1200 and incubate 2 hours at room temperature. • 5. Remove secondary antibody solution and wash 3 times with TBS with Tween 20 (5 minutes per wash). • 6. Develop membrane with Clarity™ Western ECL Substrate and detect using a Bio-Rad ChemiDoc Touch Imaging System. • 7. Quantitation of protein was performed using Image Lab software (Bio-Rad). Fatty Acid Uptake Assay Preparation • 1. Expand and grow iPSC-beige and whitened iPSC-beige adipocytes to full maturity in a 96 well plate (day 12) (see Generation of beige adipocytes above). To whiten iPSC-beige adipocytes for this assay, induce iPSC-MSCs for three days in the induction cocktail as described in the differentiation protocol (see Generation of beige adipocytes above). Following three days of induction, replace beige induction medium with DMEM containing 10% FBS and insulin ([…]). Change 100% of medium every 3 days until full maturity (day 12). • 2. On day 12, replace culture medium with DMEM containing 10% FBS. Change 100% of medium every 2 days for 6 days. • 3. Following 6 days of rest, remove culture medium and replace with […] of serum free DMEM containing 0.2% BSA. Incubate the plate at 37° C. in a 5% CO2 incubator for 1 hour. • 4. After 1 hour, add CL316,243 ([…]) to designated wells. Allow cells to incubate for 2 hours. • 5. […] Quantification and Statistical Analysis

iPSC-beige adipocytes [2] = experiment: UCP1 qPCR after β3-adrenergic stimulation of iPSC-beige adipocytes
iPSC-beige adipocytes [3] = experiment: Seahorse XF oxygen consumption after β3-adrenergic stimulation; conditions: adipocytes whitened 4 days without rosiglitazone, CL316,243 for 4 hr
FD-MSCs = experiment: Beige adipogenic precursor markers in FD-MSCs (flow cytometry, immunostaining, qPCR); conditions: 2 days pretreatment
Description: All assays were performed between 7 and 15 passages. For osteocyte differentiation, mature MSCs were grown in 24 well culture plates to 100% confluency in MesenCult-ACF and induced to differentiate in OsteoLife Complete Osteogenesis Medium (Lifeline Cell Technology) for 21 days prior to staining with Lifeline Alizarin Red Stain to visualize calcium deposition. For chondrocyte differentiation. For beige adipogenic precursor generation, cells were grown in 24 well culture plates to 90% confluence and treated with 5 uM SB413542 (Sigma) and 10 nM human IL-4 (Peprotech) for 2 days. For beige adipogenic induction, adipogenic precursors are differentiated for 3 days with adipogenic medium consisting of T3 (2 nM), insulin (170 nM), rosiglitazone (1 μM), SB413542 (5 uM), IBMX (0.5 mM), dexamethasone (5 μM) and indomethacin (125 μM) in EGM-2 medium (Lonza) supplemented with the BulletKit minus FGF2 (modified from^33). Thereafter, cells are maintained in adipogenic medium without IBMX, dexamethasone and indomethacin. The medium was changed every 3 days and adipocytes were fully differentiated by 9-12 days as determined by lipid accumulation and peak expression of UCP1.
Cell Isolation, Expansion and Differentiation of Interscapular Brown Adipose Tissue Preadipocytes • 1. Prior to adipose cell isolation, warm DMEM, FBS and cell wash buffer to room temperature. • 2. In a laminar flow cabinet for cell culture, place 5 g of adipose tissue on a 100×20 mm dish. Suspend tissue in 1 mL of Adipose Tissue Dissociation Kit enzyme digest cocktail and finely mince with a razorblade. • 3. Transfer cell suspension slurry to a 5 mL polystyrene round bottom tube and add an additional 1.5 mL of enzyme digest cocktail to tube. • 4. Incubate tube at 37° C. on a rotating nutator for 30 minutes. During incubation period, briefly vortex sample for 5 s in 10-minute intervals. • 5. Transfer cells to a 15 mL tube and add 5 mL of DMEM. Filter cell suspension through a 100 μm strainer into a new 15 mL tube and centrifuge at 300 g for 5 minutes to form a pellet. • 6. Remove supernatant and leave behind […] of DMEM. […]

Q: How did the “FOXF1 protein compared to StemDiff MIM” value (iPSCs; 1.5 μM CHIR in combination with VEGF and BMP4) turn out when `Cc1c[nH]c(-c2cnc(NCCNc3ccc(C#N)cn3)nc2-c2ccc(Cl)cc2Cl)n1` [CHIR] was run?
A: significant increase

Q: What about the “expression of FOXF1 (qPCR)” value (iPSCs; CHIR raised to 5 μM in combination with BMP4 and VEGF) of the same molecule?
A: decrease

Q: How did the “fatty acid (FA) uptake” value (iPSC-beige adipocytes [1]) turn out when `C[C@H](Cc1ccc2c(c1)OC(C(=O)[O-])(C(=O)[O-])O2)NC[C@H](O)c1cccc(Cl)c1.[Na+].[Na+]` [CL316,243] was run?
A: increased

Q: And the “effect on UCP1 expression” value (iPSC-beige adipocytes [2]; during initial differentiation, in the presence of rosiglitazone)?
A: masked or inhibitory

Q: And the UCP1 expression (iPSC-beige adipocytes [2]; during initial differentiation, without rosiglitazone)?
A: increased

Q: And the UCP1 expression (iPSC-beige adipocytes [2]; mature iPSC-beige adipocytes, CL316,243 1 μM, 4 hr)?
A: increased expression

Q: And the “overall respiration and proton leak” value (iPSC-beige adipocytes [3])?
A: increased overall respiration and proton leak

B1: IL-4: human IL-4 (Peprotech), used at 10 nM (protein, UniProt P05112 25-153, looked up)
Interleukin-4: HKCDITLQEIIKTLNSLTEQKTLCTELTVTDIFAASKNTTEKETFCRAATVLRQFYSHHEKDTRCLGATAQQFHRHKQLIRFLKRLDRNLWGLAGLNSCPVKEANQSTLENFLERLKTIMREKYSKCSS
Q: For B1, which “transcription of beige adipogenic precursor markers PDGFRα and EBF2” value (FD-MSCs) is on record?
A: little effect
